Converted amounts (≈) assume the structure as drawn.
Experiments:
[1] = Cytotoxicity against Chlorocebus aethiops (African green monkey) Vero cells assessed as alteration in cell morphology by microscopy; type: cell-based; details: chlorocebus sabaeus
[2] = tested on: Punta Toro virus; experiment: Antiviral activity against Punta Toro virus infected Vero cells assessed as inhibition of virus-induced cytopathicity; type: functional, organism-based
[3] = tested on: Coxsackievirus B4; experiment: Antiviral activity against Human coxsackievirus B4 infected Vero cells assessed as inhibition of virus-induced cytopathicity; type: functional, organism-based; details: Enterovirus B
[4] = tested on: Sindbis virus; experiment: Antiviral activity against Sindbis virus infected Vero cells assessed as inhibition of virus-induced cytopathicity; type: functional, organism-based
[5] = tested on: Mammalian orthoreovirus 1; experiment: Antiviral activity against Mammalian orthoreovirus 1 infected Vero cells assessed as inhibition of virus-induced cytopathicity by microscopy; type: functional, organism-based; details: Mammalian orthoreovirus 1, Vero
[6] = tested on: Human respirovirus 3; experiment: Antiviral activity against Human parainfluenza virus 3 infected Vero cells assessed as inhibition of virus-induced cytopathicity by microscopy; type: functional, organism-based; details: Human respirovirus 3, Vero
[7] = Cytotoxicity against Homo sapiens (human) HeLa cells assessed as alteration in cell morphology by microscopy; type: cell-based
[8] = tested on: Respiratory syncytial virus; experiment: Antiviral activity against Respiratory syncytial virus infected human HeLa cells assessed as inhibition of virus-induced cytopathicity by microscopy; type: functional, organism-based
[9] = tested on: Coxsackievirus B4; experiment: Antiviral activity against Human coxsackievirus B4 infected human HeLa cells assessed as inhibition of virus-induced cytopathicity by microscopy; type: functional, organism-based; details: Enterovirus B
[10] = tested on: Vesicular stomatitis virus; experiment: Antiviral activity against Vesicular stomatitis virus infected human HeLa cells assessed as inhibition of virus-induced cytopathicity by microscopy; type: functional, organism-based
[11] = Cytotoxicity against Homo sapiens (human) HEL cells assessed as alteration in cell morphology by microscopy; type: cell-based
[12] = tested on: Human herpesvirus 3 strain Oka vaccine; experiment: Antiviral activity against Human herpesvirus 3 strain Oka vaccine OKA 07-1 (Varicella zoster virus) infected in human HEL cells assessed as inhibition of virus-induced cytopathicity; type: functional, organism-based; details: Human alphaherpesvirus 3, OKA 07-1, HEL
[13] = tested on: Human herpesvirus 5 strain AD169; experiment: Antiviral activity against Human herpesvirus 5 strain AD169 Davis infected human HEL cells assessed as inhibition of virus-induced cytopathicity by microscopy; type: functional, organism-based; details: Human betaherpesvirus 5, Davis
[14] = tested on: Human alphaherpesvirus 1; experiment: Antiviral activity against TK(-) aciclovir-resistant Human herpesvirus 1 strain KOS infected in human HEL cells assessed as inhibition of virus-induced cytopathicity; type: functional, organism-based; details: Human alphaherpesvirus 1, KOS
[15] = tested on: Human alphaherpesvirus 2; experiment: Antiviral activity against Human herpesvirus 2 strain G infected human HEL cells assessed as inhibition of virus-induced cytopathicity by microscopy; type: functional, organism-based; details: Human alphaherpesvirus 2, strain G
[16] = tested on: Vaccinia virus; experiment: Antiviral activity against Vaccinia virus infected human HEL cells assessed as inhibition of virus-induced cytopathicity by microscopy; type: functional, organism-based; details: Orthopoxvirus vaccinia
[17] = Cytotoxicity against Homo sapiens (human) MT4 cells after 4 days by MTT assay; type: cell-based
[18] = tested on: Human alphaherpesvirus 1; experiment: Antiviral activity against Human herpesvirus 1 strain KOS infected in human HEL cells assessed as inhibition of virus-induced cytopathicity by microscopy by microscopy; type: functional, organism-based; details: Human alphaherpesvirus 1, KOS
[19] = tested on: Human immunodeficiency virus 2; experiment: Antiviral activity against Human immunodeficiency virus type 2 (ISOLATE ROD) infected MT4 cells assessed as inhibition of virus-induced cytopathic effect after 4 days by MTT assay; type: functional, organism-based; details: Human immunodeficiency virus 2, ISOLATE ROD, MT4, 96 h
[20] = tested on: Human immunodeficiency virus 1; experiment: Antiviral activity against Human immunodeficiency virus 1 IIIB infected MT4 cells assessed as inhibition of virus-induced cytopathic effect after 4 days by MTT assay; type: functional, organism-based; details: MT4, 96 h
[21] = tested on: Candida albicans; experiment: Antimicrobial activity against Candida albicans after 2 days by serial dilution method; type: functional; parameters: unit not given here
[22] = tested on: Candida albicans; experiment: Antimicrobial activity against Candida albicans after 7 days by serial dilution method; type: functional; parameters: unit not given here
[23] = tested on: Escherichia coli; experiment: Antimicrobial activity against Escherichia coli after 24 hr by serial dilution method; type: functional; parameters: unit not given here
[24] = tested on: Staphylococcus aureus; experiment: Antimicrobial activity against Staphylococcus aureus after 24 hr by serial dilution method; type: functional; parameters: unit not given here
[25] = tested on: Bacillus subtilis; experiment: Antimicrobial activity against Bacillus subtilis after 24 hr by serial dilution method; type: functional; parameters: unit not given here
[26] = tested on: Mycobacterium tuberculosis; experiment: Antimicrobial activity against Mycobacterium tuberculosis by agar dilution method; type: functional

Row | Structure (SMILES) | MCC [1] [µg/mL] | EC50 [2] [µg/mL] | EC50 [3] [µg/mL] | EC50 [4] [µg/mL] | EC50 [5] [µg/mL] | EC50 [6] [µg/mL] | MCC [7] [µg/mL] | EC50 [8] [µg/mL] | EC50 [9] [µg/mL] | EC50 [10] [µg/mL] | CC50 [11] [µg/mL] | MCC [11] [µg/mL] | EC50 [12] [µg/mL] | EC50 [13] [µg/mL] | EC50 [14] [µg/mL] | EC50 [15] [µg/mL] | EC50 [16] [µg/mL] | CC50 at 96 h [17] [µg/mL] | EC50 [18] [µg/mL] | EC50 [19] [µg/mL] | also measured
1 | O=C(N/N=C/c1ccc(O)cc1)c1cccnc1 | > 100 | > 100 | > 100 | > 100 | > 100 | > 100 | > 100 | > 100 | > 100 | > 100 | 91 (≈ 377 µM) | > 100 | 54 (≈ 224 µM) | > 100 | > 100 | > 100 | > 100 | 104 (≈ 431 µM) | > 100 | > 104 | EC50 [20]: > 104 µg/mL; -logMIC [21]: 1.28; -logMIC [22]: 1.59; -logMIC [23]: 1.29; -logMIC [24]: 1.29; -logMIC [25]: 1.29; MIC [26]: > 25 µg/mL
2 | O=C(N/N=C/c1ccccc1O)c1cccnc1 [N'-(2-HYDROXYBENZYLIDENE)NICOTINOHYDRAZIDE] | 4 | > 0.8 | > 0.8 | > 0.8 | > 0.8 | > 0.8 | 4 | > 0.8 | > 0.8 | > 0.8 | 0.42 (≈ 1.74 µM) | ≥ 4 | > 2.2 | > 0.8 | > 4 | > 4 | > 4 | 0.61 (≈ 2.53 µM) | > 4 | > 0.61 | EC50 [20]: > 0.61 µg/mL; -logMIC [21]: 1.28; -logMIC [22]: 1.29; -logMIC [23]: 1.29; -logMIC [24]: 1.29; -logMIC [25]: 1.59; MIC [26]: > 25 µg/mL
3 | COc1ccc(OC)c(/C=N/NC(=O)c2cccnc2)c1 | > 100 | > 100 | > 100 | > 100 | > 100 | > 100 | > 100 | > 100 | > 100 | > 100 | 12 (≈ 42.1 µM) | 100 | > 20 | > 20 | > 20 | > 20 | > 20 | 13 (≈ 45.6 µM) | > 20 | > 13 | EC50 [20]: > 13 µg/mL; -logMIC [21]: 1.36; -logMIC [22]: 1.96; -logMIC [23]: 1.96; -logMIC [24]: 1.36; -logMIC [25]: 1.36; MIC [26]: > 25 µg/mL
4 | O=C(N/N=C/c1ccc([N+](=O)[O-])cc1)c1cccnc1 | ≥ 0.8 | > 0.8 | > 0.8 | > 0.8 | > 0.8 | > 0.8 | 0.8 | > 0.16 | > 0.16 | > 0.16 | < 0.16 | ≥ 0.8 | > 0.16 | > 0.16 | > 0.8 | > 0.8 | > 0.8 | 0.1 (≈ 0.37 µM) | > 0.8 | > 0.1 | EC50 [20]: > 0.1 µg/mL; -logMIC [21]: 1.33; -logMIC [22]: 1.33; -logMIC [23]: 1.94; -logMIC [24]: 1.03; -logMIC [25]: 1.33; MIC [26]: > 25 µg/mL
